# Patent publication US9732075B2, “Benzimidazole-proline derivatives” (IDORSIA PHARMACEUTICALS LTD, priority 2012, dated 2017)
# Key:
# [1] = biological target: human orexin-1 receptor (Homo sapiens (Human), UniProt O43613); test: In vitro assay: intracellular calcium measurements (FLIPR), antagonistic activity; format: cell-based; conditions: CHO cells expressing human orexin-1 receptor, orexin-A agonist, geometric mean, read-out: IC50 Ox1
# Method: (§1) In Vitro Assay: Intracellular Calcium Measurements:
# (§2) Chinese hamster ovary (CHO) cells expressing the human orexin-1 receptor and the human orexin-2 receptor, respectively, are grown in culture medium (Ham F-12 with L-Glutamine) containing 300 μg/ml G418, 100 U/ml penicillin, 100 μg/ml streptomycin and 10% heat inactivated fetal calf serum (FCS). The cells are seeded at 20,000 cells/well into 384-well black clear bottom sterile plates (Greiner). The seeded plates are incubated overnight at 37° C. in 5% CO2.
# (§3) Human orexin-A as an agonist is prepared as 1 mM stock solution in MeOH: water (1:1), diluted in HBSS containing 0.1% bovine serum albumin (BSA), NaHCO3: 0.375 g/l and 20 mM HEPES for use in the assay at a final concentration of 3 nM.
# (§4) Antagonists are prepared as 10 mM stock solution in DMSO, then diluted in 384-well plates using DMSO followed by a transfer of the dilutions into in HBSS containing 0.1% bovine serum albumin (BSA), NaHCO3: 0.375 g/l and 20 mM HEPES. On the day of the assay, 50 μl of staining buffer (HBSS containing 1% FCS, 20 mM HEPES, NaHCO3: 0.375 g/l, 5 mM probenecid (Sigma) and […] of the fluorescent calcium indicator fluo-4 AM (1 mM stock solution in DMSO, containing 10% pluronic) is added to each well. The 384-well cell-plates are incubated for 50 min at 37° C. in 5% CO2 followed by equilibration at RT for 30 min before measurement.
# (§5) Within the Fluorescent Imaging Plate Reader (FLIPR Tetra, Molecular Devices), antagonists are added to the plate in a volume of 10 μl/well, incubated for 120 min and finally 10 μl/well of agonist is added. Fluorescence is measured for each well at 1 second intervals, and the height of each fluorescence peak is compared to the height of the fluorescence peak induced by an approximate EC70 (for example 5 nM) of orexin-A with vehicle in place of antagonist. The IC50 value (the concentration of compound needed to inhibit 50% of the agonistic response) is determined and may be normalized using the obtained IC50 value of a on-plate reference compound. Optimized conditions are achieved by adjustment of pipetting speed and cell splitting regime. The calculated IC50 values may fluctuate depending on the daily cellular assay performance. Fluctuations of this kind are known to those skilled in the art. Average IC50 values from several measurements are given as geometric mean values.
# [2] = biological target: human orexin-2 receptor (Homo sapiens (Human), UniProt O43614); test: as above; format: cell-based; conditions: CHO cells expressing human orexin-2 receptor, orexin-A agonist, geometric mean, read-out: IC50 Ox2
# Method: as §1, §2, §3, §4, §5
# Chain of human orexin-1 receptor (O43613 whole entry): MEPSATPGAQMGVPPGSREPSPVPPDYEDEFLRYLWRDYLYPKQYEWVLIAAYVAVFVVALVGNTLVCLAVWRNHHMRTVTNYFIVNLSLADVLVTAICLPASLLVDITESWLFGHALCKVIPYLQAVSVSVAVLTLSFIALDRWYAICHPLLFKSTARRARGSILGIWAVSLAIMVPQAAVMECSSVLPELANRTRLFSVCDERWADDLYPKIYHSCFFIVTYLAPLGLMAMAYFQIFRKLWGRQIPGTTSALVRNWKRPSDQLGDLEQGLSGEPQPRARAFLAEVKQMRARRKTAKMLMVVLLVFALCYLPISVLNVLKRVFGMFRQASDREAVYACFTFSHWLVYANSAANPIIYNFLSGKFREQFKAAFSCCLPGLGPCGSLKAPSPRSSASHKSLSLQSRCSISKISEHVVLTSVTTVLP
# Chain of human orexin-2 receptor (O43614 whole entry): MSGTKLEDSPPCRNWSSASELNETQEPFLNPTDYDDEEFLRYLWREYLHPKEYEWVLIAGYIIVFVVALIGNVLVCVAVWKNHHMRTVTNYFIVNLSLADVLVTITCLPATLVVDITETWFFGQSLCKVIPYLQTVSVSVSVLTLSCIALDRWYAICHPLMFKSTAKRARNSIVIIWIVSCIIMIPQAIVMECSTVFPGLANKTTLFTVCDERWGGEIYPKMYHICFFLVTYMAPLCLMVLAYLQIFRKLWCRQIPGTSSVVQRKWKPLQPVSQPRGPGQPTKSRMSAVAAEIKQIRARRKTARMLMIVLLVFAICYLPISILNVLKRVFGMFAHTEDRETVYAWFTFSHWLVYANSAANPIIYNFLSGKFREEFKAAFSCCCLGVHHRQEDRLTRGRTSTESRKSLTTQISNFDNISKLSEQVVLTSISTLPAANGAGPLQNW
SMILES,IC50 [1],IC50 [2]
Cc1nc(C(=O)N2CCCC2c2nc3cc(F)c(Br)cc3[nH]2)c(-c2ccccc2)s1 (stereo not drawn) [Ex. 1.136],81 nM,278 nM
Cc1nc(C(=O)N2CCCC2c2nc3cc(C(F)(F)F)c(Cl)cc3[nH]2)c(-c2ccccc2)s1 (stereo not drawn) [Ex. 1.137],4 nM,33 nM
Cc1nc(C(=O)N2CCCC2c2nc3c(Br)cc(F)cc3[nH]2)c(-c2ccccc2)s1 (stereo not drawn) [Ex. 1.138],35 nM,109 nM
Cc1nc(C(=O)N2CCC[C@H]2c2nc3c(C)cc(Br)cc3[nH]2)c(-c2ccccc2)s1 [Ex. 1.144],33 nM,27 nM
Cc1nc(C(=O)N2CCC[C@H]2c2nc3cc(Cl)c(C(F)(F)F)cc3[nH]2)c(-c2ccccc2)s1 [Ex. 1.146],7 nM,23 nM
CSc1ccc2nc([C@@H]3CCCN3C(=O)c3cc(F)ccc3-n3nccn3)[nH]c2c1 [Ex. 1.147],685 nM,24 nM
COc1ccc(-n2nccn2)c(C(=O)N2CCC[C@H]2c2nc3ccc(SC)cc3[nH]2)c1 [Ex. 1.150],301 nM,11 nM
CSc1ccc2nc([C@@H]3CCCN3C(=O)c3cc(C#N)ccc3-n3nccn3)[nH]c2c1 [Ex. 1.152],282 nM,23 nM
COc1ccc2nc([C@@H]3CCCN3C(=O)c3cc(F)ccc3-n3nccn3)[nH]c2c1 [Ex. 1.156],1810 nM,29 nM
COc1ccc2nc([C@@H]3CCCN3C(=O)c3cc(Cl)ccc3-n3nccn3)[nH]c2c1 [Ex. 1.157],419 nM,10 nM
COc1ccc(-n2nccn2)c(C(=O)N2CCC[C@H]2c2nc3ccc(OC)cc3[nH]2)c1 [Ex. 1.158],538 nM,20 nM
COc1ccc2nc([C@@H]3CCCN3C(=O)c3cc(C#N)ccc3-n3nccn3)[nH]c2c1 [Ex. 1.159],903 nM,23 nM
COc1ccc2nc([C@@H]3CCCN3C(=O)c3c(C)cccc3-n3nccn3)[nH]c2c1 [Ex. 1.161],1450 nM,22 nM
CSc1cccc2nc([C@@H]3CCCN3C(=O)c3cc(F)ccc3-n3nccn3)[nH]c12 [Ex. 1.163],167 nM,17 nM
CSc1cccc2nc([C@@H]3CCCN3C(=O)c3c(F)cccc3-n3nccn3)[nH]c12 [Ex. 1.164],217 nM,24 nM
COc1ccc(-n2nccn2)c(C(=O)N2CCC[C@H]2c2nc3cccc(SC)c3[nH]2)c1 [Ex. 1.166],45 nM,4 nM
CSc1cccc2nc([C@@H]3CCCN3C(=O)c3ccc(C)cc3-n3nccn3)[nH]c12 [Ex. 1.169],37 nM,3 nM
CSc1cccc2nc([C@@H]3CCCN3C(=O)c3c(C)cccc3-n3nccn3)[nH]c12 [Ex. 1.170],258 nM,20 nM
COc1ccc2[nH]c([C@@H]3CCCN3C(=O)c3cc(C)ccc3-n3cccn3)nc2c1 [Ex. 1.171],2210 nM,36 nM
CSc1cccc2[nH]c([C@@H]3CCCN3C(=O)c3nc(C)ccc3-n3nccn3)nc12 [Ex. 1.175],528 nM,76 nM
CSc1ccc2[nH]c([C@@H]3CCCN3C(=O)c3c(-n4nccn4)ccc(C)c3F)nc2c1 [Ex. 1.179],486 nM,28 nM
CSc1ccc2[nH]c([C@@H]3CCCN3C(=O)c3nc(C)ccc3-n3nccn3)nc2c1 [Ex. 1.180],1490 nM,50 nM

# Further molecules by falling IC50 [1], results first:
IC50 [1],IC50 [2],SMILES
3930 nM,54 nM,COc1ccc2[nH]c([C@@H]3CCCN3C(=O)c3nc(C)ccc3-n3nccn3)nc2c1 [Ex. 1.173]
2680 nM,96 nM,CSc1ccc2[nH]c([C@@H]3CCCN3C(=O)c3nc(C)ccc3-n3cccn3)nc2c1 [Ex. 1.178]
2190 nM,99 nM,CSc1ccc2[nH]c([C@@H]3CCCN3C(=O)c3ccccc3-n3cccn3)nc2c1 [Ex. 1.176]
1300 nM,317 nM,Cc1nc(C(=O)N2C[C@@H](F)C[C@H]2c2nc3c(C)cccc3[nH]2)c(-c2ccccc2)s1 [Ex. 2.2]
1170 nM,44 nM,CSc1ccc2nc([C@@H]3CCCN3C(=O)c3c(F)cccc3-n3nccn3)[nH]c2c1 [Ex. 1.148]
1160 nM,19 nM,COc1ccc2[nH]c([C@@H]3CCCN3C(=O)c3c(-n4nccn4)ccc(C)c3F)nc2c1 [Ex. 1.172]
842 nM,30 nM,CSc1ccc2[nH]c([C@@H]3CCCN3C(=O)c3cc(C)ccc3-n3cccn3)nc2c1 [Ex. 1.177]
763 nM,110 nM,CSc1ccc2nc([C@@H]3CCCN3C(=O)c3cc(C(F)(F)F)ccc3-n3nccn3)[nH]c2c1 [Ex. 1.151]
507 nM,13 nM,COc1ccc2[nH]c(C3CCCN3C(=O)c3cc(C)ccc3-n3nccn3)nc2c1 (stereo not drawn) [Ex. 1.141]
483 nM,21 nM,CSc1ccc2nc([C@@H]3CCCN3C(=O)c3c(C)cccc3-n3nccn3)[nH]c2c1 [Ex. 1.154]
458 nM,27 nM,COc1ccc2nc([C@@H]3CCCN3C(=O)c3cc(OC)c(OC)cc3-n3nccn3)[nH]c2c1 [Ex. 1.162]
245 nM,5 nM,COc1ccc2nc([C@@H]3CCCN3C(=O)c3ccc(C)cc3-n3nccn3)[nH]c2c1 [Ex. 1.160]
192 nM,46 nM,Cc1nc(C(=O)N2CCCC2c2nc3c4c(ccc3[nH]2)OCCO4)c(-c2ccccc2)s1 (stereo not drawn) [Ex. 1.140]
143 nM,9 nM,CSc1ccc2nc([C@@H]3CCCN3C(=O)c3cc(Cl)ccc3-n3nccn3)[nH]c2c1 [Ex. 1.149]
116 nM,26 nM,COc1cc2nc(C3CCCN3C(=O)c3nc(C)sc3-c3ccccc3)[nH]c2cc1OC (stereo not drawn) [Ex. 1.134]
103 nM,26 nM,Cc1nc(C(=O)N2CCCC2c2nc3c(C)c(C)ccc3[nH]2)c(-c2ccccc2)s1 (stereo not drawn) [Ex. 1.139]
97 nM,15 nM,CSc1cccc2nc([C@@H]3CCCN3C(=O)c3cc(C#N)ccc3-n3nccn3)[nH]c12 [Ex. 1.167]
76 nM,9 nM,CSc1cccc2nc([C@@H]3CCCN3C(=O)c3cc(Cl)ccc3-n3nccn3)[nH]c12 [Ex. 1.165]
68 nM,87 nM,CSc1cccc2[nH]c([C@@H]3CCCN3C(=O)c3c(-n4nccn4)ccc(C)c3F)nc12 [Ex. 1.174]
40 nM,3 nM,CSc1ccc2nc([C@@H]3CCCN3C(=O)c3ccc(C)cc3-n3nccn3)[nH]c2c1 [Ex. 1.153]
36 nM,16 nM,COc1cc(C(=O)N2CCC[C@H]2c2nc3ccc(SC)cc3[nH]2)c(-n2nccn2)cc1OC [Ex. 1.155]
32 nM,194 nM,Cc1nc(C(=O)N2CCCC2c2nc3cc(C(F)(F)F)c(F)cc3[nH]2)c(-c2ccccc2)s1 (stereo not drawn) [Ex. 1.135]
24 nM,13 nM,Cc1cc(C)c2nc([C@@H]3CCCN3C(=O)c3nc(C)sc3-c3ccccc3)[nH]c2c1 [Ex. 1.142]
20 nM,57 nM,COc1ccc(-n2nccn2)c(C(=O)N2CCC[C@H]2c2nc3cccc(SC)c3[nH]2)c1F [Ex. 1.168]
14 nM,16 nM,Cc1nc(C(=O)N2CCC[C@H]2c2nc3cc(Cl)c(C)cc3[nH]2)c(-c2ccccc2)s1 [Ex. 1.143]
3 nM,7 nM,Cc1nc(C(=O)N2CCC[C@H]2c2nc3c(C)c(Cl)ccc3[nH]2)c(-c2ccccc2)s1 [Ex. 1.145]
